Assay results taken from patent US9249356B2, “Liquid crystal dye mixture” (PEER+ B.V., priority 2011, dated 2016).

Experiments:
Format in all cases: physicochemical
[1] = Peak absorption and order parameter of Lumogen dyes in nematic liquid crystal
Description: Light fast rylene type dyes are commercially sold by BASF under the name Lumogen.

[2] = Maximum solubility in nematic liquid crystal mixture MLC6653; details: nematic LC (MLC6653 named)
Description: As is apparent from the table above, these dyes suffer from a low order parameter. The Lumogen IR 765 and Lumogen IR788 have poor fluorescence and have no significant solubility (<<0.1 wt %) in commercial liquid crystal mixture MLC6653 from (Merck Darmstadt), a nematic liquid crystal mixture with positive dielectric anisotropy and a positive delta n.

[3] = Solubility in fluorinated liquid crystal
[4] = Dichroic ratio in a liquid crystal host
Description: The purpose of these LC-dye mixtures is to be able to control the absorption or fluorescence emission (or both) of light by the dye. A measure of how well the absorption can be controlled is the dichroic ratio of the dye in the LC mixture. The dichroic ratio is the ratio in absorption for light coming in parallel to the absorption axis of the molecule (A∥) versus light traveling perpendicular to the absorption axis (A—|—):
DR=A∥/A—|—. Another way of expressing the same property is the order parameter (S), which is defined as […]

[5] = Fluorescence / quantum yield
Description: As a fourth requirement, the fluorescent dichroic dye should have high quantum efficiency. The quantum efficiency is the ratio of emitted photons to absorbed photons of the dye. The higher the quantum efficiency of the dye, the better the dye fluoresces. A good fluorescent dye has a quantum efficiency of at least 0.5, but preferably close to 1.

[6] = Light fastness; details: in words
Description: As a third requirement, a high light stability of the dye is desirable. A high light stability allows a long lifetime of the devices in high power conditions such as sunlight, lasers or interior lighting.

SMILES	Peak absorption ([1]; in nematic LC) [nm]	order parameter in nematic LC ([1]; nematic LC)	maximum solubility [2] [wt %]	solubility [3] [wt %]	dichroic ratio [4]	quantum yield ([5]; apolar solvents (cyclohexane))	light fastness [6]	fluorescence ([5]; in words)
CC(C)c1cccc(C(C)C)c1N1C(=O)c2cc(Oc3ccccc3)c3c4c(Oc5ccccc5)cc5c6c(cc(Oc7ccccc7)c(c7c(Oc8ccccc8)cc(c2c37)C1=O)c64)C(=O)N(c1c(C(C)C)cccc1C(C)C)C5=O [Lumogen F red 305]	577.5	−0.12	0.2	–	–	–	–	–
CCCCCCC(CCCCCC)N1C(=O)c2ccc3c4ccc5c6c(ccc(c7ccc(c2c37)C1=O)c64)C(=O)N(c1ccc(-c2ccc3c4ccc6c7c(ccc(c8cccc2c83)c74)C(=O)N(c2c(C(C)C)cccc2C(C)C)C6=O)cc1)C5=O [PBI-PMI, 2-(4-(2-(2,6-diisopropylphenyl)-1,3-dioxo-2,3-dihydro-1H-benzo[5,10]anthra[2,1,9-def]isoquinolin-8-yl)phenyl)-9-(tridecan-7-yl)anthra[2,1,9-def:6,5,10-d′e′f′]diisoquinoline-1,3,8,10(2H,9H)-tetraone]	–	–	–	> 0.2	14	0.77	comparable to the lightfastness of the single perylene bisimide	–
CCCCCCCCCCCCC1(CCCCCCCCCCCC)c2cc(N3C(=O)c4ccc5c6ccc7c8c(ccc(c9ccc(c4c59)C3=O)c86)C(=O)N(C(CCCCCC)CCCCCC)C7=O)ccc2-c2ccc(N3C(=O)c4ccc5c6ccc7c8c(ccc(c9ccc(c4c59)C3=O)c86)C(=O)N(C(CCCCCC)CCCCCC)C7=O)cc21 [PFP]	–	–	–	0.2	12	–	good	good
